# The source made the active and inactive calls.
# How the values were obtained:
# [1] = target: T1, Methionyl-tRNA synthetase, putative (Trypanosoma brucei brucei, UniProt Q38C91); type: functional, Trypanosoma brucei brucei strain 927/4 GUTat10.1
# T1 sequence (Q38C91 whole entry): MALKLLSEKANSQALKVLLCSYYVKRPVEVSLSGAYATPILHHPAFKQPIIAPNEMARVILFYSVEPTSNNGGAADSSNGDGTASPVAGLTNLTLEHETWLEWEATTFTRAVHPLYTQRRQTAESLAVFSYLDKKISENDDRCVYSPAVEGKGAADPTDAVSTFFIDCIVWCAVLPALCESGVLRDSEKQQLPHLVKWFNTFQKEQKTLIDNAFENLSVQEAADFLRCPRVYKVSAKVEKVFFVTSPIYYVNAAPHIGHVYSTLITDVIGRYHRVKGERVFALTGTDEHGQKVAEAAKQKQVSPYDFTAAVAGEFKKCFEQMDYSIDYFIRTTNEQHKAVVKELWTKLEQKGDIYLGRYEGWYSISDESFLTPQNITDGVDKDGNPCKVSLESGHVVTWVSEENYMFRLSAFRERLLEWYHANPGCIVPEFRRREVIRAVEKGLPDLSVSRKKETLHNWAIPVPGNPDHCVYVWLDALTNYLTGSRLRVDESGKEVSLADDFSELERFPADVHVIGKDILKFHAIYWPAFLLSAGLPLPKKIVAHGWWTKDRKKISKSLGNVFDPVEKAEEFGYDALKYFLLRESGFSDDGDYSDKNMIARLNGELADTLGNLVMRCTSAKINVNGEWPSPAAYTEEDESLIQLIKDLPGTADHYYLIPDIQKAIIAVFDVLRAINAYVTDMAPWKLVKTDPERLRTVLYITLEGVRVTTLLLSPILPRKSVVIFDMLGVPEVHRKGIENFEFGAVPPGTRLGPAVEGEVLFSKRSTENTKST
# [2] = Counterscreen for inhibitors of Trypanosoma brucei methionyl tRNA synthetase (MetRS): Luminescence-based cell-based high throughput dose response assay to identify compounds that are cytotoxic to Jurkat human T lymphocyte cells.; type: functional
# [3] = target: T1, Methionyl-tRNA synthetase, putative; type: functional, Trypanosoma brucei brucei strain 927/4 GUTat10.1; remark: listed apart in the source
# [4] = target: T2, Trace amine-associated receptor 1 (Homo sapiens, UniProt Q96RJ0); assay: Fluorescence-based cell-based high throughput dose response assay to identify agonists of the human trace amine associated receptor 1 (TAAR1).; type: functional
# T2 sequence (Q96RJ0 whole entry): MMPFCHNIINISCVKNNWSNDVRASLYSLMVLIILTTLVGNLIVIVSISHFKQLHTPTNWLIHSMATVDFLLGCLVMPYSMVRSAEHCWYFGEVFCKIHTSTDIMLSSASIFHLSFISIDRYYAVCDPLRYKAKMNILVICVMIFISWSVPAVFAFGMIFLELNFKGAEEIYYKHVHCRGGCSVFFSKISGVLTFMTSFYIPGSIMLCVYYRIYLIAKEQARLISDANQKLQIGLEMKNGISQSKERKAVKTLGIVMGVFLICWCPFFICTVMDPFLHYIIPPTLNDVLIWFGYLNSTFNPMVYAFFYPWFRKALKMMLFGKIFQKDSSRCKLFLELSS
# cells [5] = type: functional, cell-based
# [6] = target: T2, Trace amine-associated receptor 1; assay: Counterscreen for agonists of the human trace amine associated receptor 1 (hTAAR1): Fluorescence-based cell-based high throughput dose response assay to identify hTAAR1 agonist that also desensitize TAAR1 receptor response.; type: functional
# cells [7] = type: functional, cell-based; remark: listed apart in the source
# [8] = bead-based luminescence quenchers, dual-tagged ARNT – biochemical, AlphaScreen, cherry-pick, artefact control for ARNT-TACC3 interaction inhibitor project, dose response (AID 651705); type: functional;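 further: AlphaScreen bead proximity signal that flags compounds interfering with the detection technology; potency reflects signal decrease which marks the compound as an assay artifact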
# [9] = target: T3, Rac GTPase-activating protein 1 (Homo sapiens, UniProt Q9H0H5); assay: blockers of MgcRacGAP-driven Rac1 GTP hydrolysis – biochemical, ADP Hunter fluorescence, primary and confirmatory, confirmation (AID 624330); type: functional
# T3 sequence (Q9H0H5 whole entry): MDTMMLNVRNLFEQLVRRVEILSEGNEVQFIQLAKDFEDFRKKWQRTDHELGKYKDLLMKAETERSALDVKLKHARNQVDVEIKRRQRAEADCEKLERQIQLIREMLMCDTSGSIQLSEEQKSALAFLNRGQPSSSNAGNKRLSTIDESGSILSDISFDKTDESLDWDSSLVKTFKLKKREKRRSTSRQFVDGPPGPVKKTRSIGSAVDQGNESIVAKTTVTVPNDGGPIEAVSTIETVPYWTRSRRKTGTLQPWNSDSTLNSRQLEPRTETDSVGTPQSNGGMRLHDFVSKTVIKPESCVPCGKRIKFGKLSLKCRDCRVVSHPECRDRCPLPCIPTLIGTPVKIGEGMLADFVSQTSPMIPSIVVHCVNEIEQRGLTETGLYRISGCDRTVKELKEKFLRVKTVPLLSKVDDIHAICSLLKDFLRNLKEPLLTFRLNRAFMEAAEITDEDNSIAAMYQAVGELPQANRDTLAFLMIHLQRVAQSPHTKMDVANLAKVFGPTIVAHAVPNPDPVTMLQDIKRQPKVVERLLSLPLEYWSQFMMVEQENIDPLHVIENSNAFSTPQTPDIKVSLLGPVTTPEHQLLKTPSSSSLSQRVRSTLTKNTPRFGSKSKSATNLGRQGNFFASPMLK
# [10] = target: T4, Nuclear receptor subfamily 0 group B member 1 (Homo sapiens, UniProt P51843); type: functional, cell-based;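 further: HEK293T cells transfected with SF-1 and DAX-1 plus StAR promoter luciferase reporter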
# T4 sequence (P51843 whole entry): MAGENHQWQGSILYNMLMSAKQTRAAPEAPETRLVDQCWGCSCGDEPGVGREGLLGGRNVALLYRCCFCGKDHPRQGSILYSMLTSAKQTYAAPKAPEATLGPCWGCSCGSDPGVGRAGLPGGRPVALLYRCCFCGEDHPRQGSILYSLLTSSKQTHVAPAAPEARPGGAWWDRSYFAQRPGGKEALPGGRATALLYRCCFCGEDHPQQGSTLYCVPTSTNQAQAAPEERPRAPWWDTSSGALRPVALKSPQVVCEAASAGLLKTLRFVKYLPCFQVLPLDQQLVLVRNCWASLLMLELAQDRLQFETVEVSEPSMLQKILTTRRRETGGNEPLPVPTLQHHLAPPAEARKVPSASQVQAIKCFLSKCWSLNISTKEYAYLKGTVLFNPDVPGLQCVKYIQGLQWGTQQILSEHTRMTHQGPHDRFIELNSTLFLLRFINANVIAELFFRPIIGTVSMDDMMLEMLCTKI
# cells [11] = type: functional, cell-based; remark: listed apart in the source
# Genome polyprotein = Genome polyprotein (dengue virus type 2, UniProt P29990); assay: flavivirus cap methylation enzyme inhibition – biochemical, confirmation dose response, primary screen (AID 588689); type: functional
# Chain of Genome polyprotein (P29990 2492-3391 limits assumed): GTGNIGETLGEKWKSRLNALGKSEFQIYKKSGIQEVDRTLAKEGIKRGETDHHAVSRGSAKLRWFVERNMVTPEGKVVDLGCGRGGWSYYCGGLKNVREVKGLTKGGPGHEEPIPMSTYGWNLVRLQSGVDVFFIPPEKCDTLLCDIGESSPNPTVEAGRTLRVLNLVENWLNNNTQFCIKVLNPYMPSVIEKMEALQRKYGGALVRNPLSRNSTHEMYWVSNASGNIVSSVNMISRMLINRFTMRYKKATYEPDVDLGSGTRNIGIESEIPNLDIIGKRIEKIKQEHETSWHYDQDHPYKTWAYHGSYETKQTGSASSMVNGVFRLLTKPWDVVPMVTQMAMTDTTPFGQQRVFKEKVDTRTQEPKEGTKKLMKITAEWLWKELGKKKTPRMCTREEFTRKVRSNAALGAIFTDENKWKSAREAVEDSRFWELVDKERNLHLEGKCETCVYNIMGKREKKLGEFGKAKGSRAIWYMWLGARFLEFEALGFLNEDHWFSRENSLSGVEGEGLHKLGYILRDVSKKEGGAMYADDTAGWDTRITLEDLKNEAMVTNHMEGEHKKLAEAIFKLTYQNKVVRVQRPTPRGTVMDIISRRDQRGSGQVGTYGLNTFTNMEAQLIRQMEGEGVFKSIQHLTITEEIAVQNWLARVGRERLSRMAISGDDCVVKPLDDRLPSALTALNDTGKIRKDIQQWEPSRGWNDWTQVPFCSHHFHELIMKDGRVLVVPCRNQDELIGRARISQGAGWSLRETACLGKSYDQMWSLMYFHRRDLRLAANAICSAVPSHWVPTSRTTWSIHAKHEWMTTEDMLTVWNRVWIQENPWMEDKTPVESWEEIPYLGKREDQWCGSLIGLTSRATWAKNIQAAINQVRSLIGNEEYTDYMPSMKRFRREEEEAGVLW
# fMet-Leu-Phe receptor = target: T5, fMet-Leu-Phe receptor (Homo sapiens, UniProt P21462); assay: formyl peptide receptor binders – dose response (AID 519); type: functional
# T5 sequence (P21462 whole entry): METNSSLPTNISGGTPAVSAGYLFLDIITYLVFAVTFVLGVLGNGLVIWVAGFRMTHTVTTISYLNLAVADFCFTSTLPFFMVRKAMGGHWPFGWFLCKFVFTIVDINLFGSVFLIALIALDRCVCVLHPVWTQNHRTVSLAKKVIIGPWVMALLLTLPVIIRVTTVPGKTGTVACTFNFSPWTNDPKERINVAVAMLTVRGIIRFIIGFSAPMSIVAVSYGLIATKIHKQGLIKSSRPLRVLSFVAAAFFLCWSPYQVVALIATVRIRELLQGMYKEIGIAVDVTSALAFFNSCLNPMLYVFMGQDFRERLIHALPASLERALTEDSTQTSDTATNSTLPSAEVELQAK
# Leucine aminopeptidase = target: T6, Leucine aminopeptidase (Plasmodium falciparum 3D7, UniProt Q8IL11); assay: P. falciparum M17LAP inhibitors, primary screen, biochemical, fluorogenic H-Leu-NHMec substrate, 1536-well (AID 1619); type: functional
# T6 sequence (Q8IL11 whole entry): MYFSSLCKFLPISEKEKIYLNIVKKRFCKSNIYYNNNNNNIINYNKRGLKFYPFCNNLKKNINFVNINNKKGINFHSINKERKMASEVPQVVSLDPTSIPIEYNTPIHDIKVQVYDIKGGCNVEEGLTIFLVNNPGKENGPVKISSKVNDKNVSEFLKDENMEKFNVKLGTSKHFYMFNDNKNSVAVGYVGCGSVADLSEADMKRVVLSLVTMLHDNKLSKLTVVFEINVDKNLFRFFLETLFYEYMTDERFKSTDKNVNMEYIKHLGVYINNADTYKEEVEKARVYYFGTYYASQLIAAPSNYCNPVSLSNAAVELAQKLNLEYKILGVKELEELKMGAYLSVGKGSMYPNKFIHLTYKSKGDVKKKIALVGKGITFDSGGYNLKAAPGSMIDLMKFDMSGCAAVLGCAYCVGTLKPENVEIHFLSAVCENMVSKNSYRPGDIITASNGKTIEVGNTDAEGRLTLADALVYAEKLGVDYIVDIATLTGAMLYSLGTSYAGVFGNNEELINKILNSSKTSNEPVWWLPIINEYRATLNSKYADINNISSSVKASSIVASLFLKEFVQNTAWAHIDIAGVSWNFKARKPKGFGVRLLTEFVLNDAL
# Nonstructural protein 1 = Nonstructural protein 1 (Influenza A virus, UniProt Q194T2); type: functional, Influenza A virus (A/California/07/2009(H1N1))
# Chain of Nonstructural protein 1 (Q194T2 whole entry): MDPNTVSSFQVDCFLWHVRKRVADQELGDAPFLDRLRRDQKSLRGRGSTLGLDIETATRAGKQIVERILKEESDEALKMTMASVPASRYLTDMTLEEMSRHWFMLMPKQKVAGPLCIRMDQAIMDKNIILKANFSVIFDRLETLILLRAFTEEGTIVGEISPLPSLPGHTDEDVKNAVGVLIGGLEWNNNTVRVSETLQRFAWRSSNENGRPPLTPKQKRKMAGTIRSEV
# [12] = activation of miR-122 Renilla sensor silencing – cell-based, Huh7 psiCHECK-miR122, Renilla luciferase, cherry-picked, dose response (AID 651956); type: functional;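 further: huh7 hepatoma cells stably carrying a psiCHECK-2 miR-122 sensor plasmid; renilla luciferase signal reporting endogenous miR-122 activity after 48 h compound exposure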
# [13] = target: Ras and Rab interactor 1/Tyrosine-protein kinase ABL1 (Homo sapiens, UniProt P00519+Q13671); type: functional;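 further: biochemical TR-FRET dose-response test measuring inhibition of binding between Rin1 and Abl proteins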
# Chain of Ras and Rab interactor 1/Tyrosine-protein kinase ABL1 (P00519 whole entry): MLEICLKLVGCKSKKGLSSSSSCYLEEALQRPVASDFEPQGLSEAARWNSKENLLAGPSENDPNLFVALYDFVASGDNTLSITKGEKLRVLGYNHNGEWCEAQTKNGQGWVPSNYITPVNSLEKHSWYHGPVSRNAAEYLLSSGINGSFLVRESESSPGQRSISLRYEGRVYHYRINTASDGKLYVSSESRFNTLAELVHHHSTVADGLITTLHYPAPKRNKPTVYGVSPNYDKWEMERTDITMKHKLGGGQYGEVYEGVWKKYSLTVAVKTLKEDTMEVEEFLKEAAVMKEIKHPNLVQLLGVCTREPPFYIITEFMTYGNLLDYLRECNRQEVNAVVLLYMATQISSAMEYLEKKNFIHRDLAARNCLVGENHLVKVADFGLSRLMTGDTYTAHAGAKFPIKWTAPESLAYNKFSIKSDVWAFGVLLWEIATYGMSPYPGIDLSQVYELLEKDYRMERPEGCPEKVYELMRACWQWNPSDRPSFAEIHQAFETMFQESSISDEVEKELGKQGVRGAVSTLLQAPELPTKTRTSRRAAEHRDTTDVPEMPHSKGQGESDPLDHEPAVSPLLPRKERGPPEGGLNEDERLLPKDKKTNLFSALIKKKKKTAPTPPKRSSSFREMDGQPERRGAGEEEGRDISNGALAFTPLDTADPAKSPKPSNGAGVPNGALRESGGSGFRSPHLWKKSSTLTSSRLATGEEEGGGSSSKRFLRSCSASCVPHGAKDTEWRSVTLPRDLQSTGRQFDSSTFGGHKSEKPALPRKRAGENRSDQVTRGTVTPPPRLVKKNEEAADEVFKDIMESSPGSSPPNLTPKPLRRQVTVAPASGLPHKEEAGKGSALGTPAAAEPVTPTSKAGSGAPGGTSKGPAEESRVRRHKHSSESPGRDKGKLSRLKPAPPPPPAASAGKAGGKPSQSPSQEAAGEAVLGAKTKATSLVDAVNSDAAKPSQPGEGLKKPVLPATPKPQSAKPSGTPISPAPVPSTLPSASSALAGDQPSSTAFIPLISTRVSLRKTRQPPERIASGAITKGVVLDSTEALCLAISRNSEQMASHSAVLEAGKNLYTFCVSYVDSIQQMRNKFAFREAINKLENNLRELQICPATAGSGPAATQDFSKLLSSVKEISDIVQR
# Chain of Ras and Rab interactor 1/Tyrosine-protein kinase ABL1 (Q13671 whole entry): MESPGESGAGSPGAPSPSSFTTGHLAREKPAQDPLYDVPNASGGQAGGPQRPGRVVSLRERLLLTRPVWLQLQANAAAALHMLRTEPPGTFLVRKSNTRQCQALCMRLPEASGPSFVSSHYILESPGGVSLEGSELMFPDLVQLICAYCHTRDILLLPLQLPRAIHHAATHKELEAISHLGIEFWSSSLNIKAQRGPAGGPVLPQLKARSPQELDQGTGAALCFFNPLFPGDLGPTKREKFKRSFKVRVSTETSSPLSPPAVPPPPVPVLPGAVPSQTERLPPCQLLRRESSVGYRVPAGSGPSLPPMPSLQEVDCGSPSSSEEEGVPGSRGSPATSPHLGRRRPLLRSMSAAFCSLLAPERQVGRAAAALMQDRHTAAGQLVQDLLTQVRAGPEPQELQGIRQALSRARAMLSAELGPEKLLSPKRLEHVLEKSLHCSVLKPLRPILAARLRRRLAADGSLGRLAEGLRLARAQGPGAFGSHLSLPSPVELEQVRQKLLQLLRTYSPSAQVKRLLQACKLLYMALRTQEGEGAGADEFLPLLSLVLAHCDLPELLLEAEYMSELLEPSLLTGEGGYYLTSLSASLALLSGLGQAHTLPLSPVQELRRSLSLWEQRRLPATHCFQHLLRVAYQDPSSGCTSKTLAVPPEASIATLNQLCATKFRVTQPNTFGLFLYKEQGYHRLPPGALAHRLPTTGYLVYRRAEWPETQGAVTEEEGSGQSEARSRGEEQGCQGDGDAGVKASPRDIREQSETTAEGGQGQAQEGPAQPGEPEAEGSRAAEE
# H4 = assay: Luminescence Cell-Based Dose Response HTS to Identify Activators of 5'UTR Stem-Loop Driven Prion Protein mRNA Translation in H4 Neuroglioblastoma Cells. [Related pubchem assays: 1829 (Project Summary), 1814 (Primary HTS)]; type: functional; details: Homo sapiens
# [14] = Luminescence Cell-Based Dose Response HTS to Identify Activators of Luciferase Translation or Activity in H4 […] Cells. [Related pubchem assays: 1829 (Project Summary), 1814 (Primary HTS)]; type: functional
smiles,measurement,setting,value
Nc1cc(Oc2ccc(Cl)cc2Cl)nc(N)n1,IC50,[1],29.4 µM (inactive)
same,IC50,[2],83.2 µM (inactive)
same,IC50,[3],22.8 µM (inactive)
O=C(NCCc1ccccc1)C(c1ccncc1)N(C(=O)c1csnn1)C1CC1 (stereo not drawn),EC50,[4],2.11 µM (active)
same,EC50,cells [5],> 29.9 µM (inactive)
same,IC50,[6],7.59 µM (active)
same,IC50,cells [7],> 29.9 µM (inactive)
CC(=O)Nc1ccc(Oc2nc(-c3ccccn3)nc3ccccc23)cc1,AC50,[8],106 µM (active)
same,IC50,[9],43.5 µM (active)
CC(C)(C)C(=O)Nc1ccccc1C(=O)NCCCn1ccnc1,AC50,[8],131 µM (active)
O=C(Nc1ccc(N2CCCC2)cc1)c1cccc(F)c1,IC50,[10],> 67.5 µM (inactive)
same,IC50,cells [11],> 67.5 µM (inactive)
Cc1ccc(C2C(C(=O)c3ccc(Br)cc3)=C(O)C(=O)N2Cc2ccco2)o1 (stereo not drawn),IC50,Genome polyprotein,> 100 µM (active)
same,Ki,fMet-Leu-Phe receptor,> 66.7 µM (inactive)
same,IC50,Leucine aminopeptidase,66.4 µM (active)
CN1CCC(=O)N(CCOc2ccccc2)CC1,IC50,Nonstructural protein 1,18.9 µM (active)
same,AC50,[8],77.4 µM (active)
COc1ccc(CCNC(=O)c2c(C)cc(=O)oc2C)cc1OC,AC50,[12],57.6 µM (active)
O=C1CNC(=O)/C1=C/NC12CC3CC(CC(C3)C1)C2,IC50,[13],19.4 µM (inactive)
CCN1C(=O)C(CC(=O)Nc2ccc(OC)cc2)N(CCc2ccccc2)C1=S (stereo not drawn),IC50,[1],23.5 µM (inactive)
same,IC50,[2],38.9 µM (inactive)
same,IC50,[3],15 µM (inactive)
Cc1cc(C2=NN=C(NCCc3ccccc3)SC2)c(C)n1CC1CCCO1 (stereo not drawn),EC50,[4],0.553 µM (active)
same,EC50,cells [5],> 29.9 µM (inactive)
same,IC50,[6],2.84 µM (active)
same,EC50,H4,13 µM (active)
same,EC50,[14],61.9 µM (active)
same,IC50,cells [7],> 29.9 µM (inactive)
Clc1ccc(Cc2nn3c(-c4ccncc4)nnc3s2)cc1,Ki,fMet-Leu-Phe receptor,> 66.7 µM (inactive)
CC(C)OC(=O)c1cc(NC(=O)C2C3CCC(O3)C2C(=O)O)cc(C(=O)OC(C)C)c1 (stereo not drawn),Ki,fMet-Leu-Phe receptor,41.5 µM (inactive)
O=c1[nH]cnc2nc(-c3ccc(N(CCCl)CCCl)cc3)[nH]c12,IC50,[10],> 67.6 µM (inactive)
Oc1[nH]cnc2nc(-c3ccc(N(CCCl)CCCl)cc3)nc1-2,IC50,cells [11],> 67.6 µM (inactive)
NC(=O)c1cccc(-c2ccnc3c2CC(C(=O)Nc2ccc(Cl)cc2)O3)c1 (stereo not drawn),IC50,[1],18.7 µM (inactive)
same,IC50,[2],58.1 µM (inactive)
same,IC50,[3],8.03 µM (active)
O=C(Nc1ccn(CCCN2CCN(Cc3ccc(F)cc3)CC2)c(=O)n1)OCc1ccccc1,IC50,[13],20 µM (inactive)
CC[C@]12c3[nH]c4ccc(OC)cc4c3CCN1C(=O)C(CC(=O)NCCCN(C)C)C[C@@H]2C(=O)N1CCN(C(=O)c2ccco2)CC1 (stereo partly drawn),IC50,[13],35.3 µM (inactive)
CCCC(=O)N1CCCC(c2cc(C(=O)Nc3ccc4c(c3)OCO4)no2)C1 (stereo not drawn),IC50,[10],> 67.6 µM (inactive)
same,IC50,cells [11],> 67.6 µM (inactive)
CNC[C@@H]1Oc2cc(C#CC3CCCC3)ccc2S(=O)(=O)N([C@@H](C)CO)C[C@@H]1C,AC50,[12],4.31 µM (active)
COC(=O)/C(=C\Nc1ccccc1)NC(=O)c1ccc(Cl)cc1Cl,IC50,[1],6.89 µM (active)
same,IC50,[2],83.3 µM (inactive)
same,IC50,[3],2.71 µM (active)
